For one assay, the target named is CB2 (Homo sapiens, UniProt P34972). Put plainly: cAMP production in forskolin-stimulated hCB2-expressing CHO cells. Type of assay: cell-based. Also noted: expressed in transfected cells; host or cells: CHO cells.
A further assay deals with mouse ear. Put plainly: ear swelling induced by application of CB2 agonist or arachidonic acid. Type of assay: in vivo. As to conditions: mouse, in vivo. Here is the method: Therefore, 2-arachidonoylglycerol ether (2-AG-E), the stable form of an endogenous ligand candidate 2-arachidonoylglycerol, and a specific CB2 agonist HU-308 were examined whether they directly induce ear swelling and compared to the ear swelling induced by arachidonic acid (AA).
Synthetically produced 2-AG-E and HU-308 were prepared with acetone to 1 or 10% (w/v) and 10% (w/v), respectively, and AA (Sigma) was prepared with acetone to 1.25% (w/v), on needed basis. 10 μL each of these substances was applied on each side of the left ear.

Assay [1] has as its system WBB6F1-+/+ and WBB6F1-W/Wv mice. The experiment in a line: 2-AG-E-induced ear swelling in mast cell-deficient mice. Type of assay: in vivo, mouse. As to conditions: topical 2-AG-E 100 mg/mL. The protocol: The degree of allergic symptoms was examined in mice deficient (partially deficient) of mast cells, which cells are considered to largely contribute to allergic reactions.
Female mice of WBB6F1-+/+ (normal mouse) strain and WBB6F1-W/W^v (mast cell-deficient mouse) strain were purchased from Japan SLC, Inc. and used as experimental animals.
10 μL 2-AG-E (100 mg/mL acetone) was applied on each side of the left ears of the mice on the first day of experiment.
The swelling of the ear was measured over time before and after the application of 2-AG-E using a dial thickness gauge. The difference between the values measured before and after the antigen application was defined as the degree of ear swelling. Then, AUC was determined from the changes in the degree of ear swelling with the time course and given as mean ± standard error (S.E.). Student's t-test was used in the statistical treatment. A significance level less than 5% was assumed to be significant.

Assay [2] has as its system wild-type and CB2-deficient mice. The experiment in a line: 2-AG-E-induced ear swelling in CB2-deficient mice. The format is in vivo, mouse. The protocol:
As described under the item of “7. IgE-dependent ear swelling in CB2-deficient mice”, female CB2-KO mice and female WT mice were used as experimental animals.
10 μL of 2-AG-E (100 mg/mL acetone) was applied on each side of the left ears of the mice on the first day of experiment.
The swelling of the ear was measured over time before and after the application of 2-AG-E using a dial thickness gauge. The difference between the values measured before and after the antigen application was defined as the degree of ear swelling. Then, AUC (area under the curve: the degree of ear swelling ×time) was determined from the changes of the degree of ear swelling with the time course, and given as mean ± standard error (S.E.). Student's t-test was used in the statistical treatment. A significance level less than 5% was assumed to be significant.

Here are results for one compound from patent US20040171613A1, “Therapeutic agent for non-immediate type allergic diseases” (JAPAN TOBACCO INC., priority 2001, published 2004).

Chain of CB2 (P34972 whole entry): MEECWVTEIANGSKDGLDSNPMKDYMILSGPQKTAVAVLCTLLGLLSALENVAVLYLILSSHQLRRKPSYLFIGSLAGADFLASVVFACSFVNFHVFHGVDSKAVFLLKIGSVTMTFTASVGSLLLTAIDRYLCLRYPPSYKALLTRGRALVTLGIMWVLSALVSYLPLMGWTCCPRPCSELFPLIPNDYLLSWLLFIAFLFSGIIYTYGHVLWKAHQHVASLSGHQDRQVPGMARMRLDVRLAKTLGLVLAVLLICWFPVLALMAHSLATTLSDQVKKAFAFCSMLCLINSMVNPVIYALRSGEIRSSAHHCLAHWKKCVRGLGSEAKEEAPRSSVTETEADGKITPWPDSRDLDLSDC

For `CCCCC/C=C\C/C=C\C/C=C\C/C=C\CCCCOC(CO)CO` [Compound 2-AG-E, 2-arachidonoylglycerol ether], at CB2, the “forskolin-stimulated cAMP production” value is on record as “suppress the forskolin-stimulated cAMP production” and the “functional character at CB2 (inverse agonist / agonist)” value is “agonists”. Besides, in the assay with mouse ear, the “ear swelling induced by application on the ear” value is given as “concentration-dependent ear swelling” and the “time of peak ear swelling after the application” value fell in the range of 1 to 2 h. In addition, the “2-AG-E-induced dermatitis, mast cell-deficient (WBB6F1-W/Wv) mice” value in assay [1] is recorded as “developed dermatitis”. The “2-AG-E-induced dermatitis, wild-type (WBB6F1-+/+) mice” value in assay [1] (vs mast cell-deficient mice) is given as “more severe dermatitis”. Besides, in assay [2] (CB2-KO), the “2-AG-E-induced dermatitis, CB2-deficient mice, very late phase” value is reported as “no significant inflammation was observed”. Further, the “2-AG-E-induced dermatitis, CB2-deficient mice, early phase” value in assay [2] (CB2-KO, topical 2-AG-E 100 mg/mL) is given as “developed dermatitis in the early phase”. Besides, in assay [2] (CB2-KO, vs wild-type), the “2-AG-E-induced dermatitis, CB2-deficient mice, late phase” value is “inflammation was milder in the late phase”. Also, in assay [2] (wild-type C57BL/6 J, topical 2-AG-E 100 mg/mL), the “2-AG-E-induced dermatitis (ear swelling), wild-type mice” value is “developed dermatitis in the very late phase in addition to the early phase and late phase”.
